Laboratory results reported in patent publication US5403824A, “Methods for the treatment of osteoporosis” (The Procter & Gamble Company, priority 1993, dated 1995).
Square brackets hold non-standard residues; d marks the D form. Peptide text beside a SMILES is read from it. dMet(O) = CS(=O)CC[C@@H](N)C(=O)O; Phe(ol) = N[C@H](CO)Cc1ccccc1

Tests used:
mu opioid receptor = mu opioid receptor (Cavia porcellus, UniProt A0ACM8Q262); assay: inhibition of [3H]DAGO binding, method of Goldstein et al.; design: species or system guinea pig; conditions: radioligand [3H]DAGO
mu opioid receptor, sequence (A0ACM8Q262 1-400): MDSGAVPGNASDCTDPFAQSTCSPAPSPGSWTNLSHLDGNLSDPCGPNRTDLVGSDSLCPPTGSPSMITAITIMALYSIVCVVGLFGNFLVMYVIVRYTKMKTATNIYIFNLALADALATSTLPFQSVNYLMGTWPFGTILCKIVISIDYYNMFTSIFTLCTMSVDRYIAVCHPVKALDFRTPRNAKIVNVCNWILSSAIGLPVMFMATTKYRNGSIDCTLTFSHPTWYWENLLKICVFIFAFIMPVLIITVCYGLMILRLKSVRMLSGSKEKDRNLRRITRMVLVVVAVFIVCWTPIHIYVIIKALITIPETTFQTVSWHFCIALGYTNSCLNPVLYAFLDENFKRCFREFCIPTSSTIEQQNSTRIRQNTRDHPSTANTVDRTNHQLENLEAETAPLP
Text: Affinity for mu opioid receptors can be measured by any of several art-recognized in vitro models. One such model is described by A. Goldstein et al., "Multiple Opioid Receptors: Ligand Selectivity Profiles and Binding Site Signatures", 36 […] 265-272 (1989), which is incorporated herein by reference. According to this model, a test compound is screened for its ability to inhibit binding of a mu-selective radiolabeled ligand ("mu-selective radiolabeled ligand" refers to a radiolabeled compound that is known to have selective affinity for mu opioid receptors) to mu opioid receptor binding sites. More specifically, this in vitro model compares test samples (comprising a mu-selective radiolabeled ligand ("hot ligand"); the non-radiolabeled equivalent to the "hot ligand" ("cold ligand"); test compound at varying concentrations in each test sample; and mu opiate receptor material) and a control sample (comprising hot ligand; cold ligand; and mu opiate receptor material).
Following the protocol set forth by Goldstein et al., the samples are assayed for relative radioactivity.
In assessing a compound's in vitro affinity for mu opioid receptors according the method described by Goldstein et al., the mu-selective radiolabeled ligand (i.e., "hot ligand") is preferrably [^3 H]Tyr-D-Ala-Gly-N-methyl-Phe-Gly(ol) ("[^3 ]DAGO" or "hot DAGO"). […]

[1] = system: human subject with postmenopausal osteoporosis or low bone mass; assay: treatment of human subject with osteoporosis, vertebral density by dual-energy photon absorptiometry; type: in vivo; conditions: 30 mg intravenously daily (substitutes at comparable levels), 28 days active / 28 days calcium, two years
Description: A human subject weighing about 60 kg (132 lbs), suffering from postmenopausal osteoporosis, is treated by a method of this invention. Specifically, for two years, the enkephalin-degrading enzyme inhibitor DL-3-mercapto-2-benzylpropanoylglycine is administered orally, in a cyclical regimen, where each cycle consists of an active period of 28 days during which a tablet containing 160 mg of said inhibitor is administered each day, followed by a non-active period of 28 days during which the subject receives a daily supplement of calcium (1,000 mg/day), with repeat of cycle.
A human subject weighing about 60 kg (132 lbs), suffering from postmenopausal osteoporosis, is treated by a method of this invention. Specifically, for two years, the compound H-Tyr-D-Ala-Gly-Phe-D-Leu-OH ("DADLE") is administered to the subject, in a cyclical regimen, where each cycle consists of an active period of 28 days during which a solution containing 30 mg of DADLE is administered intravenously every day, followed by a non-active period of 28 days during which the patient receives a daily supplement of calcium (1,000 mg/day), with repeat of cycle.
(§1) A human subject weighing about 60 kg (132 lbs), suffering from postmenopausal osteoporosis, is treated by a method of this invention. Specifically, for two years, an enkephalin of the formula Tyr-D-Cys(S-t-butylthioether)-Gly-Phe-Leu-Thr(O-t-butylether) ("BUBUC") is administered to the subject, in a cyclical regimen, where each cycle consists of an active period of 28 days during which a solution containing 30 mg of BUBUC is intravenously administered each day, followed by a non-active period of 28 days during which the patient receives a daily supplement of calcium (1,000 mg/day), with repeat of cycle.
as §1, with “years, the” for “years, an”, “enkephalin secretagogue Tyr-Arg^1,” for “enkephalin of the formula Tyr-D-Cys(S-t-butylthioether)-Gly-Phe-Leu-Thr(O-t-butylether) ("BUBUC")”, “of Tyr-Arg” for “of BUBUC”, “the subject” for “the patient”, “cycle. […]” for “cycle.”
A human subject weighing about 60 kg (132 lbs), suffering from postmenopausal osteoporosis, is treated by a method of this invention. Specifically, each day for five years, the subject is administered 3 tablets, comprised as follows.
A human subject weighing about 60 kg (132 lbs) is evaluated approximately four years after spontaneous menopause, and is found to have low bone mass. The subject is then treated by a method of this invention to treat osteoporosis. Specifically, once each month for five years, the subject is administered, via intravenous injection, 5 ml of a solution comprised as follows.

[2] = system: Rat osteoblast-like cells (ROS 17/2.8); assay: [3H]-thymidine incorporation, proliferation of osteoblast-like cells; type: cell-based; conditions: ROS 17/2.8, 18 hrs incubation, 2 hrs pulse
Text: Stimulation of osteoblast-like cell proliferation can be measured according to several art-recognized in vitro models. One such model is described in European Patent Publication No. 384,731, by Rodan et al, published Aug. 29, 1990, which is incorporated herein by reference. (Applicants have modified this method by reducing regent volumes to one-quarter those described and by utilizing Dulbecco's Modified eagle's Medium (DMEM).) In this model, proliferation (division) of, for example, rat osteoblast-like cells (rat osteosarcoma (ROS) cells, rat calvaria cells, etc.) is observed by measuring the amount of radiolabeled thymidine ([^3 H]thymidine) incorporated by these cells. ([^3 H]thymidine is "incorporated" by cellular DNA being synthesized as a result of cell proliferation.) The greater the level of [^3 H]thymidine measured, the greater the amount of proliferation of the osteoblast cells.
More specifically, a test sample (comprised of a test compound and osteoblast-like cells) and a control sample (comprised of only osteoblast-like cells) are pulsed with [^3 H]thymidine. The amount of [^3 H]thymidine incorporated by the cells is measured using a direct beta counter.
Rat osteoblast-like cells (ROS 17/2.8) are plated at 4×10^3 cells/well in a 96-well plate in Dulbecco's Modified eagle's Medium supplemented with 2% (v/v) Fetal Bovine Serum, and incubated for 6 hrs. Control (serum-free) medium and test medium (test sample and serum-free medium) are then added to the cells and this combination is incubated for 18 hrs. The cells are then pulsed with [^3 H]-thymidine (1 μCi/well) for 2 hrs. The medium is then removed, the cells are harvested onto glass fibre filters and the amount of [^3 H]-thymidine (counts per minute per well) incorporated into DNA is then determined using a direct beta counter. Values for control groups are then compared to values for treated groups.
(§2) The compound H-Tyr-D-Ala-Gly-Phe-D-Leu-OH ("DADLE") is screened to determine whether it stimulates proliferation of osteoblast-like cells. […] The medium is then removed, the cells are harvested onto glass fibre filters, and the amount of ^3 H-thymidine (counts per minute per well) incorporated into DNA is determined using a direct beta counter. […]
as §2, with “Tyr-D-Cys(S-t-butylthioether)-Gly-Phe-Leu-Thr(O-t-butylether) ("BUBUC")” for “H-Tyr-D-Ala-Gly-Phe-D-Leu-OH ("DADLE")”

Compound: CC(C)C[C@@H](NC(=O)[C@H](Cc1ccccc1)NC(=O)CNC(=O)[C@@H](C)NC(=O)[C@@H](N)Cc1ccc(O)cc1)C(=O)O [DADLE, H-Tyr-D-Ala-Gly-Phe-D-Leu-OH]
- in vitro mu opioid receptor affinity (IC50 ≤1000 times the IC50 of non-radiolabeled DAGO) (mu opioid receptor): significant in vitro mu opioid receptor affinity
- density of vertebrae / bone mass [1]: an increase in bone mass
- density of vertebrae / bone mass ([1]; listed as H-Tyr-D-Ala-Gly-Phe-D-Leu): substantially similar results
- [3H]-thymidine incorporation (proliferation) vs control [2]: significantly stimulated proliferation of the osteoblast-like cells

Compound: C[C@@H](NC(=O)[C@@H](N)Cc1ccc(O)cc1)C(=O)NCC(=O)N(C)[C@@H](Cc1ccccc1)C(=O)N[C@H](CO)CC[S+](C)[O-] (stereo partly drawn) [H-Tyr-D-Ala-Gly-N-methyl-Phe-Met(sulfoxide)(ol)]
- density of vertebrae / bone mass [1]: substantially similar results

Compound: CC(C)C[C@H](NC(=O)[C@H](Cc1ccccc1)NC(=O)CNC(=O)[C@@H](C)NC(=O)[C@@H](N)Cc1ccc(O)cc1)C(N)=O [H-Tyr-D-Ala-Gly-Phe-Leu-NH2]
- density of vertebrae / bone mass [1]: substantially similar results

Compound: CSCC[C@H](NC(=O)[C@H](Cc1ccccc1)NC(=O)CNC(=O)[C@@H](C)NC(=O)[C@@H](N)Cc1ccc(O)cc1)C(N)=O [H-Tyr-D-Ala-Gly-Phe-Met-NH2]
- density of vertebrae / bone mass [1]: substantially similar results

Compound: CSCC[C@H](NC(=O)[C@H](Cc1ccccc1)NC(=O)[C@@H](C)NC(=O)[C@@H](N)Cc1ccc(O)cc1)C(N)=O [H-Tyr-D-Ala-Phe-Met-NH2] (H-Y[dA]FM-NH2)
- density of vertebrae / bone mass [1]: substantially similar results

Compound: C[S+]([O-])CC[C@@H](NC(=O)[C@@H](N)Cc1ccc(O)cc1)C(=O)NCC(=O)N[C@H](CO)Cc1ccccc1 (stereo partly drawn) [H-Tyr-D-Met(O)-Gly-Phe(ol)] (H-Y[dMet(O)]G[Phe(ol)])
- density of vertebrae / bone mass [1]: substantially similar results

Compound: CSCC[C@@H](NC(=O)[C@@H](N)Cc1ccc(O)cc1)C(=O)NCC(=O)N[C@@H](Cc1ccccc1)C(=O)N1CCC[C@H]1C(N)=O [H-Tyr-D-Met-Gly-Phe-Pro-NH2] (H-Y[dM]GFP-NH2)
- density of vertebrae / bone mass [1]: substantially similar results

Compound: CC(C)C[C@H](NC(=O)[C@H](Cc1ccccc1)NC(=O)CNC(=O)[C@@H](COC(C)(C)C)NC(=O)[C@@H](N)Cc1ccc(O)cc1)C(=O)N[C@H](C(=O)O)[C@@H](C)OC(C)(C)C [H-Tyr-D-Ser(O-t-butylether)-Gly-Phe-Leu-Thr(O-t-butylether)]
- density of vertebrae / bone mass [1]: substantially similar results

Compound: CC(C)C[C@H](NC(=O)[C@H](Cc1ccccc1)NC(=O)CNC(=O)[C@@H](COC(C)(C)C)NC(=O)[C@@H](N)Cc1ccc(O)cc1)C(=O)N[C@H](C(=O)O)[C@@H](C)O [H-Tyr-D-Ser(O-t-butylether)-Gly-Phe-Leu-Thr]
- density of vertebrae / bone mass [1]: substantially similar results

Compound: H-(2,6-dimethyl-Try)-D-Ala-NH-phenylpropyl
- density of vertebrae / bone mass [1]: substantially similar results

Compound: H-Tyr-D-Pen-Gly-Phe-Pen
- density of vertebrae / bone mass [1]: substantially similar results
